Assays:
Solubility to chloroform = type: physicochemical
Procedure: In this embodiment, an effect of introducing a substituent other than hydrogen into R^5 and R^6 of the compounds represented by the general formulas [Chem. 5] to [Chem. 8] will be described. […] In contrast, in the case where R^5 and R^6 are trimethylsilyl groups, the solubility to chloroform at 25° C. is 15.4 wt. %. Thus, it is possible to considerably improve the solubility by introducing the substituent into R^5 and R^6.

[1] = Cyclic voltammetry, oxidation potential; type: physicochemical; settings: acetonitrile, tetrabutyl ammonium perchlorate, platinum electrodes
Procedure: The cyclic voltammetry measurements were conducted by using acetonitrile as a solvent and tetrabutyl ammonium perchlorate as a supporting electrolyte. Each of a working electrode and a counter electrode was made from platinum. […] […] Therefore, in the compounds represented by the general formulas [Chem. 5] to [Chem. 8], it is preferable that the cyclic structures are formed by R^1 and R^2 and by R^3 and R^4, and this is supported by the result of this example.

| solubility to chloroform (Solubility to chloroform) | oxidation potential [1] [V] | SMILES |
| --- | --- | --- |
| less than 1 wt. % | 1.20 | c1cc(-c2scc3c2OCCO3)ccc1-c1scc2c1OCCO2 [Chem. 9, 1,4-di-(3,4-ethylenedioxy-2-thienyl)benzene] |
|  | 1.68 | CCCCCCOc1csc(-c2ccc(-c3scc(OCCCCCC)c3OCCCCCC)cc2)c1OCCCCCC [Chem. 11, 1,4-bis(3,4-dihexyloxy-2-thienyl)benzene] |
